Results taken from ChEMBL document CHEMBL1201862, “PubChem BioAssay data set” (2004).
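Each compound was tested at five concentrations against cells in 96-well plates for 48 hours. Abbreviation: GI50, concentration required for 50% inhibition of growth.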 Activity calls are given as the source filed them. No stated cut-off is given here; in the data, active = GI50 up to about 1.1 µM and inactive = higher.

Key:
Assay in all cases: growth of human tumour cells (NCI), 48 h
A498 = system: A498
ACHN = system: ACHN
BT-549 = system: BT-549
HCT-116 = system: HCT-116
HOP-92 = system: HOP-92
M14 = system: M14
MOLT-4 = system: MOLT-4
NCI-H522 = system: NCI-H522
NCI/ADR-RES = system: NCI/ADR-RES
OVCAR-4 = system: OVCAR-4
OVCAR-5 = system: OVCAR-5
PC-3 = system: PC-3
RPMI-8226 = system: RPMI-8226
RXF 393 = system: RXF 393
SK-MEL-2 = system: SK-MEL-2
SK-MEL-5 = system: SK-MEL-5
SNB-75 = system: SNB-75
UACC-257 = system: UACC-257
NCI-H460 = system: NCI-H460

Measured: GI50

CCOC(=O)C(C)c1nc2c(Cl)c3ncccc3cc2[nH]c1=O (configuration not stated)
inactive: A498 > 100 µM | ACHN 22.6 µM | BT-549 57 µM | HCT-116 76.9 µM | HOP-92 29.8 µM | M14 44.8 µM | MOLT-4 31.4 µM | NCI-H522 50.7 µM | NCI/ADR-RES 29.9 µM | OVCAR-4 57.9 µM | OVCAR-5 > 100 µM | PC-3 40.7 µM | RPMI-8226 22.1 µM | RXF 393 62.8 µM | SK-MEL-2 > 100 µM | SK-MEL-5 30.5 µM | SNB-75 62.2 µM | UACC-257 > 100 µM

Cc1ccc(O)c(C2=CC3=NNC(=O)C3C(c3cccc(Cl)c3)C2)c1 (configuration not stated)
inactive: A498 61.9 µM | ACHN 30.5 µM | BT-549 26.7 µM | HCT-116 30.9 µM | HOP-92 24 µM | M14 52 µM | MOLT-4 46.2 µM | NCI-H460 32.4 µM | NCI/ADR-RES 50.4 µM | OVCAR-4 12.8 µM | OVCAR-5 51.6 µM | PC-3 40.6 µM | RPMI-8226 24.4 µM | RXF 393 2.56 µM | SK-MEL-2 28.2 µM | SK-MEL-5 32.1 µM | SNB-75 18.5 µM | UACC-257 64.3 µM

OC(c1ccccc1)C(F)(F)c1nc2ccccc2o1 (configuration not stated)
inactive: A498 14.7 µM | ACHN > 100 µM | BT-549 > 100 µM | HCT-116 > 100 µM | HOP-92 > 100 µM | M14 > 100 µM | MOLT-4 57.3 µM | NCI-H460 > 100 µM | NCI/ADR-RES 89.3 µM | OVCAR-4 > 100 µM | PC-3 > 100 µM | RPMI-8226 70 µM | RXF 393 > 100 µM | SK-MEL-2 > 100 µM | SK-MEL-5 77.1 µM | SNB-75 > 100 µM | UACC-257 > 100 µM

Nc1ccc(Oc2ccc(C3(c4ccc(Oc5ccc(N)c(O)c5)cc4)C4CC5C6CC7CC5C3C(C7)C6C4)cc2)cc1O
inactive: A498 2.55 µM | ACHN 1.75 µM | BT-549 4.15 µM | HCT-116 1.71 µM | HOP-92 1.77 µM | M14 1.45 µM | MOLT-4 2.07 µM | NCI-H460 2.41 µM | NCI-H522 1.83 µM | NCI/ADR-RES 5.62 µM | OVCAR-4 2.35 µM | OVCAR-5 1.31 µM | PC-3 1.86 µM | RPMI-8226 1.63 µM | RXF 393 1.7 µM | SK-MEL-2 2.36 µM | SK-MEL-5 3.86 µM | UACC-257 2.5 µM

COc1cc2oc(-c3ccc4c(c3)OCO4)c(OC)c(=O)c2c(O)c1OC
inactive: A498 > 50 µM | ACHN > 50 µM | BT-549 34.9 µM | HCT-116 > 50 µM | HOP-92 22.8 µM | M14 > 50 µM | MOLT-4 > 50 µM | NCI-H460 > 50 µM | NCI-H522 > 50 µM | NCI/ADR-RES > 50 µM | OVCAR-4 > 50 µM | OVCAR-5 > 50 µM | PC-3 > 50 µM | RXF 393 > 50 µM | SK-MEL-2 > 50 µM | SK-MEL-5 > 50 µM | SNB-75 28.6 µM | UACC-257 > 50 µM

CCCCC1Nc2ccccc2-c2ccnc(Cl)c21 (configuration not stated)
inactive: A498 16.8 µM | ACHN 20.8 µM | BT-549 18 µM | HCT-116 15.7 µM | HOP-92 14.2 µM | M14 19.1 µM | MOLT-4 17.8 µM | NCI-H460 32.1 µM | NCI-H522 11.7 µM | NCI/ADR-RES 27.7 µM | OVCAR-4 20.1 µM | PC-3 25.8 µM | RPMI-8226 12.2 µM | RXF 393 18.5 µM | SK-MEL-2 16.8 µM | SK-MEL-5 15.2 µM | SNB-75 13.5 µM | UACC-257 20 µM
